14 compounds from publication PMC9415509, “Pro-Apoptotic Antitumoral Effect of Novel Acridine-Core Naphthoquinone Compounds against Oral Squamous Cell Carcinoma” (Molecules, 2022) can be followed below.

Where two headings read alike, the source gives them in different places.

The nature of data set [1]: Solubility observation during MTT testing. The data set is classed as physicochemical. The following applies: formed crystals at low concentrations in MTT assay. How it is done: All 26 acridine-core naphthoquinone compounds were submitted to the MTT assay to assess their cytotoxicity. […] These compounds were excluded from further biological experimentation. First, the assay was conducted on the SCC9 OSCC cell line and the results were analyzed by a nonlinear regression curve to determine the value of the half maximal inhibitory concentration (IC50). […] Anticancer activities of these compounds are reported here for the first time.
For orientation: Tetrazolium assays rely on reduction of a dye to a coloured formazan, in cell work by metabolically active cells.

The subject of the next data set is SCC9 (OSCC cell). Kind of data set: MTT cell viability assay (cytotoxicity), SCC9. The following applies: for IC50: read-out: SCC9—Oral Cancer IC50; for SCC9 S.I.: IC50 normal oral fibroblasts / IC50 SCC9. In kind it is cell-based, human. On the procedure:
(§1) Cells and reagents. Human SCC-4, SCC-9, and SCC-25 cells, derived from a human oral tongue SCC (squamous cell carcinoma) were obtained from the ATCC (CRL-1624, CRL-1629, and CRL-1628, respectively) and maintained in 1:1 DMEM/F12 (Dulbecco’s modified Eagle medium and Ham’s F12 medium; Gibco (Thermo Fisher, Waltham, MA, USA)) supplemented with 10% (v/v) FBS (fetal bovine serum; Invitrogen, Thermo Fisher, Waltham, MA, USA) and 400 ng/mL hydrocortisone (Sigma-Aldrich Co., St. Louis, MO, USA). Primary normal human gingival fibroblasts were obtained from the ATCC (PCS-201-018) and maintained in DMEM supplemented with 10% (v/v) FBS and were used in a maximum of six passages. The cells were grown in a humidified environment containing 5% CO2 at 37 °C. […] Carboplatin stock was prepared in water (Fauldcarbo®; LibbsFarmacêutica, São Paulo, SP, Brazil) and was used as a standard anticancer compound.
(§2) Cell viability assay (cytotoxicity) and compound stability assay. The viability of SCC cell lines and primary human fibroblast cells was evaluated using the MTT assay as in [48]. Briefly, the cells were grown in triplicates in 96-well plates (5 × 10^3 cells/well) until confluence. Then, the medium was removed, fresh medium was added, and the cells were returned to the incubator in the presence of different compounds. DMSO at the same concentrations was used as a 100% cell viability control. After 48 h, the cells were incubated with 5 mg/mL MTT reagent (3-(4,5-dimethyl-2-thiazolyl)-2,5-diphenyl-2-H-tetrazolium bromide) (Sigma-Aldrich Co., St. Louis, MO, USA) for 3.5 h. After that, formazan crystals were dissolved in MTT solvent solution (DMSO/methanol 1:1 v/v) and the absorbance at 560 nm was evaluated using an EPOCH microplate spectrophotometer (BioTek Instruments, Winooski, VT, USA) with the background absorbance at 670 nm subtracted.
(§3) Statistical analysis, IC50 calculation. The data are presented as means ±\SD. IC50 values for the MTT assays were obtained by nonlinear regression using the […] 5.0 program (Intuitive Software for Science, San Diego, CA, USA) from at least three independent experiments. A dose–response (inhibitor) vs. response curve using the least squares method was used to determine the IC50, SD, and R^2 of the data. The selectivity index was calculated as SI = IC50 of the compound in normal oral fibroblast cells/IC50 of the same compound for each oral cancer cell line (SCC-4, SCC-9, and SCC-25) and the mean was calculated when indicated.

Another data set concerns SCC25 OSCC cell line. Kind of data set: MTT cell viability assay (cytotoxicity), SCC25. The data set is classed as cell-based, human. The following applies: for IC50: read-out: Oral Tumor Cells SCC25 IC50; for SCC25 S.I.: IC50 normal oral fibroblasts / IC50 SCC25. On the procedure:
as §1, §2, §3

Another data set concerns SCC4 OSCC cell line. Kind of data set: MTT cell viability assay (cytotoxicity), SCC4. The following applies: for IC50: read-out: Oral Tumor Cells SCC4 IC50; for SCC4 S.I.: IC50 normal oral fibroblasts / IC50 SCC4. The data set is classed as cell-based, human. How it is done: as §1, §2, §3
Data set [2] can be described thus: MTT cell viability assay, normal fibroblasts. The data set is classed as cell-based, human. Conditions: human, primary normal human gingival fibroblasts (ATCC PCS-201-018). How it is done: as §1, §2, §3
The test system of data set [3] is Primary normal human gingival fibroblasts. Kind of data set: MTT cell viability assay, normal fibroblasts. The data set is classed as cell-based. Conditions: 48 h, read-out: Primary Gingival Fibroblast IC50. On the procedure: as §1, §2, §3
The mark [4] stands for this setting: Homo sapiens, SCC-9, SCC9, 48 h, MTT (Table 1).
Setting [5] is: Homo sapiens, SCC-25, SCC25, 48 h, MTT.
Where [6] appears, read: Homo sapiens, SCC-4, SCC4, 48 h, MTT.
[7] abbreviates: Homo sapiens, Fibroblast, primary gingival fibroblasts, MTT.

By melting point is commonly meant the temperature of the solid-liquid transition. The compound `CC1(C)CC(=O)C2=C(C1)NC1=C(C(=O)c3ccccc3C1=O)C2c1ccc(F)cc1` (centres unmarked) [4f, 12-(4-fluorophenyl)-3,3-dimethyl-3,4-dihydrobenzo[b]acridine-1,6,11(2H,5H,12H)-trione] registered a melting point of 295 to 297 °C. Also, the solubility result in data set [1] was “highly insoluble”.

Take `CC1(C)CC(=O)C2=C(C1)NC1=C(C(=O)c3ccccc3C1=O)C2c1c(F)c(F)c(F)c(F)c1F` (centres unmarked) [4g, 12-(perfluorophenyl)-3,3-dimethyl-3,4-dihydrobenzo[b]acridine-1,6,11(2H,5H,12H)-trione]: the melting point fell in the range of 260 to 261 °C. Besides, the solubility result in data set [1] is on record as “highly insoluble”.

Take `Cc1ccc(C2C3=C(CC(C)(C)CC3=O)NC3=C2C(=O)c2ccccc2C3=O)c(C)c1` (centres unmarked) [4i, 12-(2,4-dimethylphenyl)-3,3-dimethyl-3,4-dihydrobenzo[b]acridine-1,6,11(2H,5H,12H)-trione]: the solubility entry in data set [1] is listed as “highly insoluble”.

As usually defined, the IC50 is the concentration that inhibits the measured activity by half. Usually viability stands for the share of living cells, or the viability signal relative to a control. Compound `COc1ccc(C2C3=C(CC(C)(C)CC3=O)NC3=C2C(=O)c2ccccc2C3=O)c(OC)c1` (centres unmarked) [4j, 12-(2,4-dimethoxyphenyl)-3,3-dimethyl-3,4-dihydrobenzo[b]acridine-1,6,11(2H,5H,12H)-trione] had a melting point of 250 to 251 °C. Moreover, in the data set on SCC9 (OSCC cell) (setting [4]), the half-inhibitory concentration (IC50) was 4.1 µM. The “SCC9 S.I.” value in the data set on SCC9 (OSCC cell) is on record as 5.7. For the same compound, the IC50 in the data set with SCC25 OSCC cell line (setting [5]) was found to be 11.5 µM. Also, the “SCC25 S.I.” value in the data set on SCC25 OSCC cell line turned out to be 2.0. Moreover, the IC50 with SCC4 OSCC cell line (setting [6]) amounted to 18.9 µM. For the same compound, the “SCC4 S.I.” value in the data set with SCC4 OSCC cell line turned out to be 1.2. In data set [2], the viability at 48 h was > 75%. For the same compound, the IC50 in data set [3] (setting [7]) was found to be 23.6 µM.

`COc1cc(C2C3=C(CC(C)(C)CC3=O)NC3=C2C(=O)c2ccccc2C3=O)cc(OC)c1OC` (centres unmarked) [4m, 12-(3,4,5-trimethoxyphenyl)-3,3-dimethyl-3,4-dihydrobenzo[b]acridine-1,6,11(2H,5H,12H)-trione] came in with a melting point of 242 to 243 °C. Moreover, the IC50 in the data set on SCC9 (OSCC cell) (setting [4]) is 2.06 µM. Besides, the “SCC9 S.I.” value in the data set on SCC9 (OSCC cell) worked out at 3.8. Further, in the data set on SCC25 OSCC cell line (setting [5]), the IC50 came to 7.41 µM. Further, the “SCC25 S.I.” value in the data set with SCC25 OSCC cell line was 1.1. Moreover, in the data set on SCC4 OSCC cell line (setting [6]), the IC50 was 11 µM. For the same compound, the “SCC4 S.I.” value in the data set on SCC4 OSCC cell line worked out at 0.7. The viability at 48 h in data set [2] was > 75%. Also, the IC50 in data set [3] (setting [7]) is 7.86 µM.

`O=C1CCCC2=C1C(c1ccccc1)C1=C(N2)C(=O)c2ccccc2C1=O` (centres unmarked) [5a, 12-phenyl-3,4-dihydrobenzo[b]acridine-1,6,11(2H,5H,12H)-trione] gave a melting point of 287 to 288 °C. In addition, the solubility result in data set [1] is recorded as “highly insoluble”.

Regarding `O=C1CCCC2=C1C(c1ccccc1Cl)C1=C(N2)C(=O)c2ccccc2C1=O` (centres unmarked) [5b, 12-(2-chlorophenyl)-3,4-dihydrobenzo[b]acridine-1,6,11(2H,5H,12H)-trione], the solubility result in data set [1] is “highly insoluble”.

Compound `O=C1CCCC2=C1C(c1ccc(F)cc1)C1=C(N2)C(=O)c2ccccc2C1=O` (centres unmarked) [5f, 12-(4-fluorophenyl)-3,4-dihydrobenzo[b]acridine-1,6,11(2H,5H,12H)-trione] came in with a melting point of 255 to 256 °C. Also, the solubility result in data set [1] was “highly insoluble”.

Consider `O=C1CCCC2=C1C(c1c(F)c(F)c(F)c(F)c1F)C1=C(N2)C(=O)c2ccccc2C1=O` (centres unmarked) [5g, 12-(perfluorophenyl)-3,4-dihydrobenzo[b]acridine-1,6,11(2H,5H,12H)-trione], for which the solubility entry in data set [1] is “highly insoluble”.

`Cc1ccc(C2C3=C(CCCC3=O)NC3=C2C(=O)c2ccccc2C3=O)c(C)c1` (centres unmarked) [5i, 12-(2,4-dimethylphenyl)-3,4-dihydrobenzo[b]acridine-1,6,11(2H,5H,12H)-trione] had a melting point of 263 to 264 °C. The solubility result in data set [1] was “highly insoluble”.

Regarding `N.N.O=C([O-])C1(C(=O)[O-])CCC1.[Pt+2]` [Carboplatin, carboplatin], the “SCC9 S.I.” value with SCC9 (OSCC cell) is 2.2. In addition, the half-maximal inhibitory concentration (IC50) in the data set with SCC9 (OSCC cell) (SCC9, 48 h, MTT (Table 1)) was found to be 250 µM; in the data set on SCC25 OSCC cell line (SCC25, 48 h, MTT), 186 µM; with SCC4 OSCC cell line (SCC4, 48 h, MTT), 180 µM; in data set [3] (primary gingival fibroblasts, MTT), 560 µM. The “SCC25 S.I.” value with SCC25 OSCC cell line was 3.0. Besides, in the data set with SCC4 OSCC cell line, the “SCC4 S.I.” value came to 3.1.

For the compound `COc1cccc2c1C(=O)c1c(O)c3c(c(O)c1C2=O)C[C@@](O)(C(=O)CO)C[C@@H]3O[C@H]1C[C@H](N)[C@H](O)[C@H](C)O1` [Doxorubicin, doxorubicin], the IC50 came to 7.8 µM with SCC9 (OSCC cell) (setting [4]), 1.27 µM with SCC25 OSCC cell line (setting [5]), 4.56 µM in the data set with SCC4 OSCC cell line (setting [6]) and 12.3 µM in data set [3] (setting [7]). Moreover, the “SCC9 S.I.” value in the data set on SCC9 (OSCC cell) is recorded as 1.6. Moreover, the “SCC25 S.I.” value with SCC25 OSCC cell line amounted to 9.7. Also, the “SCC4 S.I.” value with SCC4 OSCC cell line was 2.7.

Regarding `CC(C)=CCC1=C(O)C(=O)c2ccccc2C1=O` [Lapachol, lapachol], the IC50 was determined as 58.3 µM in the data set with SCC9 (OSCC cell) (setting [4]), 93.8 µM in the data set on SCC25 OSCC cell line (setting [5]), 76.9 µM in the data set with SCC4 OSCC cell line (setting [6]) and 106 µM in data set [3] (setting [7]). The “SCC9 S.I.” value in the data set with SCC9 (OSCC cell) was found to be 1.8. Moreover, in the data set with SCC25 OSCC cell line, the “SCC25 S.I.” value came to 1.1. The “SCC4 S.I.” value in the data set with SCC4 OSCC cell line is 1.4.

Consider `CC(C)=CC[C@@H](O)C1=CC(=O)c2c(O)ccc(O)c2C1=O` [Shikonin, shikonin], for which the IC50 came out at 1.22 µM in the data set on SCC9 (OSCC cell) (Homo sapiens, SCC-9, 48 h); 2.47 µM with SCC25 OSCC cell line (Homo sapiens, SCC-25, 48 h); 3.19 µM in the data set with SCC4 OSCC cell line (Homo sapiens, SCC-4, 48 h); 2.48 µM in data set [3] (Homo sapiens, Fibroblast). In addition, the “SCC9 S.I.” value in the data set with SCC9 (OSCC cell) is 2.0. In addition, the “SCC25 S.I.” value with SCC25 OSCC cell line is 1.0. In addition, the “SCC4 S.I.” value in the data set on SCC4 OSCC cell line amounted to 0.8.
